{"source": "paper PMC12259270", "about": "“Sensory neuron–expressed FGF13 controls nociceptive signaling in diabetic neuropathy models” (The Journal of Clinical Investigation, 2025)", "system": "C57BL/6 mice", "assay": "Capsaicin-induced mechanical hypersensitivity (von Frey)", "assay_type": "in vivo, mouse", "set-up": "LVF Mean / HVF Mean / MECHANICAL LVF / MECHANICAL HVF: unit not given here", "from_the_text": "FGF13 is a neuronal gene ubiquitously transcribed in DRG neuronal subtypes ([43]–[46]). To investigate neuronal subtype enrichment of the FGF13 transcript, we examined a gene panel including FGF13, SCN9A, and several marker genes in mouse single-cell transcriptomic data (Supplemental Figure 10) ([43]–[46]). […] Critically, putative silent nociceptors marked by somatostatin (SST), and the nicotinic cholinergic receptor α-3 subunit (CHRNA3) contribute to development of inflammatory mechanical hyperalgesia ([47]). […] We next determined if PW164 modulation of the FGF13/Nav1.7 complex could suppress nociceptive behaviors in WT mice. We tested whether intraplantar (i.pl.) injection (5 μL) of PW164 altered hind paw withdrawal in response to low or high intensity von Frey filament (LVF or HVF, respectively) mechanical stimulation (Figure 3A). […] Next, we evaluated PW164’s effect on mechanical and thermal hindpaw sensitivity in capsaicin-induced nociceptive hypersensitivity models. […] Next, we performed in vivo target validation in WT mice that received an intrathecal (i.t.) injection in L5 of AAV2-shFGF13 (6 μL, viral titers 1 × 10^12 vector genomes (vg)/mL); a control group received an equal number of AAV2-shCTRL particles (Figure 3C).\nExperiments were performed on 6- to 12-week-old male C57BL/6 mice (The Jackson Laboratory, Bar Harbor, ME) housed in the AAALAC-accredited facility at the University of Texas Medical Branch. Mice were group-housed with up to 5 mice per cage on a 12-to-12-hour light–dark cycle and had access to water and food ad libitum. All protocols were approved by the Institutional Animal Care and Use Committee (IACUC) at the University of Texas Medical Branch and in accordance with the National Institutes of Health (NIH) guidelines.\nPW164 and ZL192 were dissolved in DMSO and saline in a ratio of 1:10. 0.1% capsaicin (10% ethanol, 10% Tween-20 in saline; Sigma-Aldrich). All the compounds were injected at the center of the hind paw. The control group received a DMSO-saline mixture. […]\nBupivacaine was prepared from a 1:2 dilution with sterile 0.9% saline and locally injected in the center of the paw at 7 mg/ml.\nAAV2 viral particles packaged by the University of North Carolina Gene Therapy Core Facility (viral titer ranging […]\nBefore intrathecal injections in the lumbar region, mice were maintained in an anesthetizing box with 2% isoflurane to induce unconsciousness. Six microliters of viral vector were gently injected into the CSF through a 30-gauge needle with a Hamilton syringe in the lumbar area between vertebrae L4 and L5 by gently gripping the iliac crest of the mouse and inserting the needle with an angle of 45°. The correct procedure was confirmed by the mouse’s tail reflexiv e flick.\nAssessment of mechanical sensitivity\nMechanical sensitivity was assessed using von Frey filaments (VFF 0.1g and 1.0 g force) in mice that were either naïve or received intraplantar (i.p.) injection of capsaicin. VFFs were applied at the injection site (capsaicin or […]", "key": {"[1]": {"details": "Cap + PW164 0.07 mg/mL, Time (h) 0"}, "[2]": {"details": "Cap + PW164 0.07 mg/mL, Time (h) 0.5"}, "[3]": {"details": "Cap + PW164 0.07 mg/mL, Time (h) 1"}, "[4]": {"details": "Cap + PW164 0.07 mg/mL, Time (h) 1.5"}, "[5]": {"details": "Cap + PW164 0.07 mg/mL, Time (h) 2"}, "[6]": {"details": "Cap + PW164 0.07 mg/mL, Time (h) 3"}, "[7]": {"details": "Cap + PW164 0.21 mg/mL, Time (h) 0"}, "[8]": {"details": "Cap + PW164 0.21 mg/mL, Time (h) 0.5"}, "[9]": {"details": "Cap + PW164 0.21 mg/mL, Time (h) 1"}, "[10]": {"details": "Cap + PW164 0.21 mg/mL, Time (h) 1.5"}, "[11]": {"details": "Cap + PW164 0.21 mg/mL, Time (h) 2"}, "[12]": {"details": "Cap + PW164 0.21 mg/mL, Time (h) 3"}, "[13]": {"details": "Cap + PW164 0.7 mg/mL, Time (h) 0"}, "[14]": {"details": "Cap + PW164 0.7 mg/mL, Time (h) 0.5"}, "[15]": {"details": "Cap + PW164 0.7 mg/mL, Time (h) 1"}, "[16]": {"details": "Cap + PW164 0.7 mg/mL, Time (h) 1.5"}, "[17]": {"details": "Cap + PW164 0.7 mg/mL, Time (h) 2"}, "[18]": {"details": "Cap + PW164 0.7 mg/mL, Time (h) 3"}, "[19]": {"details": "Figure 3 D, AAV2-Control mice after Cap, 0.h min PW164"}, "[20]": {"details": "Figure 3 D, AAV2-Control mice after Cap, 1h PW164"}, "[21]": {"details": "Figure 3 D, AAV2-Control mice after Cap, 2h PW164"}, "[22]": {"details": "Figure 3 D, AAv2-shFGF13 mice after Cap, 0.h min PW164"}, "[23]": {"details": "Figure 3 D, AAv2-shFGF13 mice after Cap, 1h PW164"}, "[24]": {"details": "Figure 3 D, AAv2-shFGF13 mice after Cap, 2h PW164"}}, "note": "Residues, ends and D or L forms follow the SMILES beside them. *: point of attachment. Cbz = O=C(OCc1ccccc1)*; OtBu = CC(C)(C)O*"}
{"smiles": "COC(=O)[C@@H](NC(=O)[C@H](CCC(=O)OC(C)(C)C)NC(=O)[C@H](CC(C)C)NC(=O)[C@@H]1CCCN1C(=O)OCc1ccccc1)C(C)C", "note": "[PW164] (Cbz-PLE(OtBu)V-OMe)", "values": [{"measurement": "HVF Mean", "setting": "[1]", "result": 50}, {"measurement": "LVF Mean", "setting": "[1]", "result": 0}, {"measurement": "HVF Mean", "setting": "[2]", "result": 100}, {"measurement": "LVF Mean", "setting": "[2]", "result": 62.5}, {"measurement": "HVF Mean", "setting": "[3]", "result": 97.5}, {"measurement": "LVF Mean", "setting": "[3]", "result": 62.5}, {"measurement": "HVF Mean", "setting": "[4]", "result": 85}, {"measurement": "LVF Mean", "setting": "[4]", "result": 45}, {"measurement": "HVF Mean", "setting": "[5]", "result": 87.5}, {"measurement": "LVF Mean", "setting": "[5]", "result": 35}, {"measurement": "HVF Mean", "setting": "[6]", "result": 83.75}, {"measurement": "LVF Mean", "setting": "[6]", "result": 32.5}, {"measurement": "HVF Mean", "setting": "[7]", "result": 51.6667}, {"measurement": "LVF Mean", "setting": "[7]", "result": 0}, {"measurement": "HVF Mean", "setting": "[8]", "result": 100}, {"measurement": "LVF Mean", "setting": "[8]", "result": 60}, {"measurement": "HVF Mean", "setting": "[9]", "result": 78.3333}, {"measurement": "LVF Mean", "setting": "[9]", "result": 40}, {"measurement": "HVF Mean", "setting": "[10]", "result": 83.3333}, {"measurement": "LVF Mean", "setting": "[10]", "result": 35}, {"measurement": "HVF Mean", "setting": "[11]", "result": 90}, {"measurement": "LVF Mean", "setting": "[11]", "result": 30}, {"measurement": "HVF Mean", "setting": "[12]", "result": 98.3333}, {"measurement": "LVF Mean", "setting": "[12]", "result": 38.3333}, {"measurement": "HVF Mean", "setting": "[13]", "result": 50}, {"measurement": "LVF Mean", "setting": "[13]", "result": 0}, {"measurement": "HVF Mean", "setting": "[14]", "result": 100}, {"measurement": "LVF Mean", "setting": "[14]", "result": 61.6667}, {"measurement": "HVF Mean", "setting": "Cap + PW164 0.7 mg/mL, Time (h) 0.75", "result": 80}, {"measurement": "HVF Mean", "setting": "[15]", "result": 63.3333}, {"measurement": "LVF Mean", "setting": "[15]", "result": 20}, {"measurement": "HVF Mean", "setting": "[16]", "result": 63.3333}, {"measurement": "LVF Mean", "setting": "[16]", "result": 13.3333}, {"measurement": "HVF Mean", "setting": "[17]", "result": 68.3333}, {"measurement": "LVF Mean", "setting": "[17]", "result": 21.6667}, {"measurement": "HVF Mean", "setting": "[18]", "result": 86.6667}, {"measurement": "LVF Mean", "setting": "[18]", "result": 31.6667}, {"measurement": "HVF Mean", "setting": "[19]", "result": 43.3333}, {"measurement": "LVF Mean", "setting": "[19]", "result": 14.17}, {"measurement": "HVF Mean", "setting": "[20]", "result": 50}, {"measurement": "LVF Mean", "setting": "[20]", "result": 13.33}, {"measurement": "HVF Mean", "setting": "[21]", "result": 45.8333}, {"measurement": "LVF Mean", "setting": "[21]", "result": 9.17}, {"measurement": "HVF Mean", "setting": "[22]", "result": 41.5152}, {"measurement": "LVF Mean", "setting": "[22]", "result": 9.09}, {"measurement": "HVF Mean", "setting": "[23]", "result": 37.9091}, {"measurement": "LVF Mean", "setting": "[23]", "result": 9.39}, {"measurement": "HVF Mean", "setting": "[24]", "result": 41.2121}, {"measurement": "LVF Mean", "setting": "[24]", "result": 11.52}, {"measurement": "duration of analgesic effect", "setting": "PW164 0.7 mg/mL i.pl., naive and AAV2-shCTRL mice after capsaicin", "result": "at least 2 hours"}, {"measurement": "mechanical sensitivity in AAV2-shFGF13 mice after capsaicin", "setting": "PW164 5 μL, 0.7mg/mL hind paw", "result": "did not further modify"}, {"measurement": "capsaicin-induced mechanical sensitivity", "setting": "PW164 at the capsaicin injection site, 30 minutes post-capsaicin", "result": "inhibited"}, {"measurement": "lowest concentration with dose-dependent antihyperalgesic effect", "setting": "i.pl., capsaicin model", "result": 0.21, "unit": "mg/mL"}]}
